Article doi:10.1101/2025.09.04.674342, “Tandem association of CLOCK:BMAL1 complexes on DNA enables recruitment of CBP/p300 through multivalent interactions” (bioRxiv, 2025)
No end group written: not given here.

Columns and labels:
CBP KIX [1] = biological target: T1, CBP KIX (Mus musculus, UniProt P45481); assay: 15N-1H HSQC NMR titration of 15N CBP KIX with BMAL1 TAD peptides; format: binding; conditions: for binding of locked switch peptides to CBP KIX by pattern of CSPs: Fig. 3d
T1 construct: mouse CBP (UniProt P45481) KIX (residues 586–672); made in house; host or cells: Rosetta (DE3) E. coli
Procedure: (§1) NMR experiments were conducted on a Varian INOVA 600-MHz spectrometer equipped with ^1H, ^13C, ^15N triple resonance, Z-axis pulsed field gradient cryoprobe. All NMR data were collected at 25°C. NMR data were processed using NMRPipe/NMRDraw[79]. ^15N-^1H HSQC spectra CBP KIX were performed in 330 μL volume in a Shigemi tube with 100 μM ^15N CBP KIX in NMR buffer (10 mM MES pH 6.5, 50 mM NaCl) and 10% (v/v) D2O in the presence of stepwise additions of concentrated stocks of BMAL1 TAD or truncated peptides. ^15N-^1H HSQC spectra of BMAL1 TAD WT or L606A/L607A were performed in 330 μL volume in a Shigemi tube with 100 μM ^15N BMAL1 TAD in NMR buffer (10 mM MES pH 6.5, 50 mM NaCl) and 10% (v/v) D2O in the presence of stepwise additions of CBP KIX (WT or 3mut), TAZ1, or TAZ2, followed by concentration in an Amicon Ultra centrifugal filter with a 3 kDa MWCO (Merck Millipore). Chemical shift assignments of BMAL1 TAD (entry 25280) and CBP KIX (entry 6750) were obtained from the Biological Magnetic Resonance Data Bank (BMRB); CBP KIX assignments at pH 5.5 were transferred to the spectrum at pH 6.5 via a 3-step pH titration. Titration data for protein interactions were analyzed with NMRViewJ (One Moon Scientific) using chemical shift perturbations defined by the equation ΔδTOT = [(Δδ^1H)^2 + (χ(Δδ^15N)^2]^½ and normalized with the scaling factor χ = 0.5[80].

CBP TAZ1 = biological target: T2, CBP TAZ1 (Mus musculus, UniProt P45481); assay: 15N-1H HSQC NMR titration of 15N BMAL1 TAD L606A/L607A with CBP TAZ1; format: binding; conditions: 100 μM 15N TAD L606A/L607A; Fig. 6e,f
T2 construct: Mouse CBP (UniProt P45481) TAZ1 (residues 340–439); made in house; host or cells: Rosetta (DE3) E. coli
Procedure: as §1

CBP KIX [2] = biological target: T1, CBP KIX; assay: 15N-1H HSQC NMR titration of 15N BMAL1 TAD L606A/L607A with CBP KIX; format: binding; conditions: versus WT TAD with WT KIX
Procedure: as §1

CBP TAZ2 = biological target: T3, CBP TAZ2 (Mus musculus, UniProt P45481, C1776A/C1784A/C1827A/C1828A); assay: 15N-1H HSQC NMR titration of 15N BMAL1 TAD L606A/L607A with CBP TAZ2; format: binding; conditions: 100 μM 15N TAD L606A/L607A; Fig. 6g,h
T3 construct: Mouse CBP (UniProt P45481) TAZ2 (residues 1764–1855); MBP; made in house; host or cells: E. coli (BL21)
T3 sequence (P45481 1764-1855 C1776A/C1784A/C1827A/C1828A): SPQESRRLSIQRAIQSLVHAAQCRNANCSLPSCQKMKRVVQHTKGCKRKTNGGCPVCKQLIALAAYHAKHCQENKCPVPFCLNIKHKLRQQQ
Procedure: as §1

WT CBP KIX = assay: Isothermal titration calorimetry, CBP KIX WT with BMAL1 TAD; format: binding, mouse
Procedure: (§2) ITC measurements were obtained as previously described. Briefly, proteins were extensively dialyzed at 4°C in 10 mM MES pH 6.5, 50 mM NaCl using a 2 kDa molecular weight cutoff filter dialysis tubing (Spectrum Labs) prior to collecting ITC data. ITC was performed on a MicroCal VP-ITC calorimeter at 25°C with a stir speed of 177 rpm, reference power of 10 μCal/sec and 10 μL injection sizes. Protein ratios for the cell and syringe for the ITC assays (3 independent runs for each complex) were 220–230 μM CBP KIX WT or 3mut titrated into 20–25 μM BMAL1 TAD WT or L606A/L607A as indicated (stoichiometry (n) = 0.8–1.1). All data were best fit by a one-site binding model using Origin software.

[3] = system: CREB-induced Per1-luc activation; assay: Per1-luc reporter in HEK293T cells after forskolin stimulation; format: cell-based, human; conditions: compounds 16 hours, 10 μM forskolin 2 hours before harvest, n = 3, Fig. 5g
Procedure: HEK293T cells were purchased from ATCC (cat. #CRL-3216) were cultured in 10% DMEM (i.e. 10% (v/v) FBS) and 1X penicillin-streptomycin (Thermo Fisher) at 37°C in an incubator humidified with 5% CO2. Forskolin (CAS 66575-29-9, cat. #F3917, Sigma Aldrich), KG-501/naphthol-AS-E-phosphate (CAS 18228-17-6, cat. #70485, Sigma Aldrich), XX-650–23 (CAS 117739-40-9, cat. #AOB31725, Aobious), and 666–15 (CAS 1433286-70-4, cat. #AMBH97F07B56, Sigma Aldrich) were stored as recommended by the manufacturer and assessed by 1D NMR before use.
For Per1-luc reporter assays with inhibitors, 48-well plates with HEK293T cells were transfected with LT-1 (Mirus) and the following plasmids in duplicate: 5 ng pGL3 Per1-luciferase[8] and 395 ng empty pcDNA4 vector; for CLOCK:BMAL1 activity, 5 ng pGL3 Per1-luciferase, 100 ng pSG5 Clock, 100 ng pSG5 Bmal1, and 195 ng empty pcDNA4 vector. Cells were treated with compounds as indicated or 1% DMSO 24 hours after transfection for 16 hours prior to harvesting. For forskolin treatment, 10 μM forskolin was added 2 hours prior to harvesting. Cells were lysed in Passive Lysis Buffer ([…]) according to the protocol and luciferase activity was measured with Bright-Glo reagent ([…]) on an EnVision plate reader (Perkin Elmer). Each reporter assay was repeated at least three times.

CBP KIX [4] = biological target: T1, CBP KIX; assay: Fluorescence polarization competition assay, CBP KIX:TAD WT titrated with KG-501; format: binding
Procedure: TAMRA fluorescent probe covalently attached to the N-terminus; the C-terminus of the Δswitch peptide was amidated, while the others were left as a free carboxyl group. Equilibrium binding assays (Fig. 5b) with CBP KIX, TAZ1, and TAZ2 and competition assay with CBP KIX:TAD WT titrated with KG-501 (Fig. 5i) were performed in 10 mM MES pH 6.5, 50 mM NaCl and 0.05% (v/v) Tween-20. Concentrated stocks of BMAL1 TAD probes were stored between 15–200 μM at −70°C and diluted in assay buffer to 50 nM alone (binding assays) or to 10 nM bound to 2 μM CBP KIX (competition assay) and in the presence of increasing concentrations of KG-501. Plates were incubated at room temperature for 10–20 minutes prior to analysis. Binding was monitored by changes in fluorescence polarization with an EnVision 2103 multilabel plate reader (Perkin Elmer) with excitation at 531 nm and emission at 595 nm. The Hill coefficient and equilibrium binding dissociation constant (KD) were calculated by fitting the dose-dependent change in millipolarization (Δmp) to a one-site specific binding model (binding assays) or an [inhibitor] vs. response (three parameters) model (competition assay) in Prism (GraphPad). Data shown for equilibrium binding assays are from a representative experiment (n=4 replicates) of three independent assays (Fig. 5b). […]

[5] = system: 3mut CBP KIX (Y650A, A654Q, Y658A); assay: 15N-1H HSQC NMR titration of 15N BMAL1 TAD with 3mut CBP KIX; format: binding, mouse; conditions: versus WT KIX
Procedure: as §1

[6] = system: 3mut CBP KIX (Y650A, A654Q, Y658A); assay: Isothermal titration calorimetry, 3mut CBP KIX with BMAL1 TAD; format: binding, mouse; conditions: same conditions as WT KIX; Fig. 4b
Procedure: as §2

[7] = cited from earlier work
CREB = system: CREB; set-up: method as in PMID 19810079, PMID 27211267; conditions: cited from earlier work

T1 sequence (P45481 586-672): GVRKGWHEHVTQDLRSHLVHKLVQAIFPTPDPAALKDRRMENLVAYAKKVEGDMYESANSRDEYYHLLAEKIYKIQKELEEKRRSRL
T2 sequence (P45481 340-439): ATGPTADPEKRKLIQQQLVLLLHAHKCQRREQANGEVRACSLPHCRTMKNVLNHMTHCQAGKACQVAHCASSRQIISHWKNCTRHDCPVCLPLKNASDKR

Question: For “FSDLPWAL [P625A switch, trans-locked switch peptide with P625A substitution]”, which “binding of locked switch peptides to CBP KIX by pattern of CSPs” value (CBP KIX [1]; 100 μM 15N CBP KIX) is on record?
Answer: The value was “can bind at the MLL1 site”.

Question: Which “changes of the 15N-1H HSQC spectrum on addition of CBP TAZ1” value (CBP TAZ1) does the source give for “TAD LL/AA: recombinant BMAL1 TAD (579–626) with L606A/L607A mutation of the IXXLL motif” here?
Answer: Its value is “almost no changes to the spectrum”.

Question: And the “reduction of affinity for CBP KIX by mutation in the BMAL1 TAD helix” value (CBP KIX [2])?
Answer: The value was “about 100 fold”.

Question: What about the “interaction with CBP TAZ2 by 15N-1H HSQC” value (CBP TAZ2) of the same compound?
Answer: The value was “retained interaction”.

Question: What about the “binding by ITC (in words)” value (WT CBP KIX; same conditions as WT TAD, Fig. 4e) of the same compound?
Answer: Its value is “did not yield any binding heats”.

Question: Which “Activation of Per1-luc reporter after forskolin (Fsk) stimulation” value [3] does the source give for `O=C(Nc1ccc(Cl)cc1)c1cc2ccccc2cc1OP(=O)(O)O` [KG-501, naphthol-AS-E-phosphate] here?
Answer: Its value is “moderately decreased potency relative to the others”.

Question: And the IC50 (CBP KIX [4]; 2 μM CBP KIX bound to 10 nM [5,6] TAMRA-labeled minimal BMAL1 TAD probe, 10 mM MES pH 6.5, 50 mM NaCl, 0.05% Tween-20, mean from 2 replicates done in duplicate, read-out: IC50, displacement of CBP KIX from TAD probe)?
Answer: The IC50 was 222 ± 22.5 µM.

Question: And the Ki (CBP KIX [4]; KD = 2 μM set for the BMAL1 TAD-CBP KIX interaction, read-out: Ki calculated from the Cheng-Prusoff equation)?
Answer: The Ki was 111 µM.

Question: With “FSDLPWdmPL [P625dmP-switch, cis-locked switch peptide with 5,5-dimethyl L-proline at position 625]” as the compound, how does the “binding of locked switch peptides to CBP KIX by pattern of CSPs” value (CBP KIX [1]; 100 μM 15N CBP KIX) read?
Answer: The value was “can bind at the MLL1 site”.

Question: With FSDLPWPL-OH [switch] as the compound, how does the “KD for the CBP KIX domain estimated by fitting concentration-dependent CSPs” value (CBP KIX [1]; 100 μM 15N CBP KIX, 10 mM MES pH 6.5, 50 mM NaCl, 25°C, Fig. 3b) read?
Answer: The value was “hundreds of micromolar”.

Question: What about the Kd (CBP KIX [1]; 100 μM 15N CBP KIX, 10 mM MES pH 6.5, 50 mM NaCl, 25°C, Fig. 3b, read-out: KD for the CBP KIX domain estimated by fitting concentration-dependent CSPs) of the same compound?
Answer: Its Kd is greater than 500 µM.

Question: With “BMAL1 TAD: recombinant mouse BMAL1 transactivation domain, residues 579–626” as the compound, how does the “reduction of affinity by mutation of the CBP KIX c-Myb site” value [5] read?
Answer: Its value is “about 100 fold”.

Question: And the Kd (WT CBP KIX; 220–230 μM CBP KIX titrated into 20–25 μM BMAL1 TAD, 10 mM MES pH 6.5, 50 mM NaCl, 25°C, 3 independent runs, one-site model, read-out: KD by ITC)?
Answer: The Kd was roughly 2 µM.

Question: What about the “binding by ITC (in words)” value [6] of the same compound?
Answer: The value was “disrupted”.

Question: Which results are given for “linker-switch: residues 613–626 of mouse BMAL1 (LGGPVDFSDLPWPL)”?
Answer: apparent affinity for CBP KIX relative to the isolated switch peptide (CBP KIX [1]; 100 μM 15N CBP KIX titrated with peptide, Fig. 3a): modestly higher apparent affinity; site of chemical shift perturbations on CBP KIX (CBP KIX [1]; peptide 100 μM, 1:1 stoichiometry with 15N CBP KIX, Fig. 2e): perturbs the MLL1 site

Question: What does the source list for `N#Cc1ccc(NC(=O)c2cc3ccccc3cc2O)cc1` [XX-650–23]?
Answer: solubility [7]: poor solubility; activity in cells relative to KG-501 (CREB): more active in cells
